Results as given in patent US11566007B2, “Ras inhibitors” (Revolution Medicines, Inc., priority 2019, dated 2023).
Read-outs that look alike come from different tables or passages of the source.

What was measured:
KRAS G12D = KRAS G12D (Homo sapiens (Human), UniProt P01116+P62937, G12D); experiment: Ras-Raf (BRAF RBD) disruption / FRET / MOA assay, KRAS G12D; assay type: biochemical; settings: Ras-Raf disruption/FRET/MOA assay; class symbols; read-out: KRAS G12D FRET data IC50
Procedure, shortened: (§1)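 Ternary complex formation (Ras–compound–cyclophilin A) displacing BRAF RBD, monitored by TR-FRET. Three hours at 25° C with compound (top 30 μM final), then 1.5 h with the labelled antibodies. Lower ratio than DMSO indicates disruption; IC50 reported.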

NRAS G12C = NRAS G12C (Homo sapiens (Human), UniProt P01111+P62937, G12C); experiment: Ras-Raf (BRAF RBD) disruption / FRET / MOA assay, NRAS G12C; assay type: biochemical
Chain of NRAS G12C (P01111 whole entry G12C): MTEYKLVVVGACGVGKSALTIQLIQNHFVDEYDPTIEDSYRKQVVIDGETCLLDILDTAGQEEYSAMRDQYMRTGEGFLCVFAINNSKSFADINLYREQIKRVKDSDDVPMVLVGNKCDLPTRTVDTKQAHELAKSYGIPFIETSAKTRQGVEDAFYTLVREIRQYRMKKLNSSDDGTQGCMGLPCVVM
Chain of NRAS G12C (P62937 whole entry): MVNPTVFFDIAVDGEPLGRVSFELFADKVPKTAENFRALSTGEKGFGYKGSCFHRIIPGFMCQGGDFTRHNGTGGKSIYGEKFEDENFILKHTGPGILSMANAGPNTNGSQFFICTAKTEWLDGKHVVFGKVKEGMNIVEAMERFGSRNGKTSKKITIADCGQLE
Procedure, shortened: as §1

K-Ras G13C = K-Ras G13C (Homo sapiens (Human), UniProt P01116+P62937, G13C); experiment: Ras-Raf (BRAF RBD) disruption / FRET / MOA assay, KRAS G13C; assay type: biochemical; settings: KRAS G13C; Ras-Raf disruption/FRET/MOA assay; read-out: IC50* KRAS G13C FRET data
Chain of K-Ras G13C (P01116-2 other isoform, or with tags, fused parts or gaps G13C): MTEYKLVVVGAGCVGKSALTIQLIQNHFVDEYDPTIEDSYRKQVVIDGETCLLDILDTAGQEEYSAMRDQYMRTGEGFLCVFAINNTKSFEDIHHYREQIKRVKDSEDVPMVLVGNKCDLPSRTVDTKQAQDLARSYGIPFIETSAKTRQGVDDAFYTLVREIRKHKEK
Chain of K-Ras G13C (P62937 whole entry): as the sequence (P62937 whole entry) above
Procedure, shortened: as §1

NRAS WT = NRAS WT (Homo sapiens (Human), UniProt P01111+P62937); experiment: Ras-Raf (BRAF RBD) disruption / FRET / MOA assay, NRAS WT; assay type: biochemical; settings: read-out: IC50* NRAS WT FRET data
Chain of NRAS WT (P01111 whole entry): as the sequence (P01111 whole entry G12C) above, with C12G counted along it
Chain of NRAS WT (P62937 whole entry): as the sequence (P62937 whole entry) above
Procedure, shortened: (§2)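 Compounds were tested as a 10-point 3-fold dilution series from 30 μM final for their ability to drive ternary complex formation between nucleotide-loaded Ras and cyclophilin A, displacing the BRAF RBD. After 3 h at 25° C., anti-His Eu-W1024 (10 nM) and anti-GST allophycocyanin (50 nM) were added for 1.5 h. A TR-FRET ratio decrease versus DMSO gave IC50.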

NRAS Q61R = NRAS Q61R (Homo sapiens (Human), UniProt P01111+P62937, Q61R); experiment: Ras-Raf (BRAF RBD) disruption / FRET / MOA assay, NRAS Q61R; assay type: biochemical; settings: NRAS Q61R; Ras-Raf disruption/FRET/MOA assay; read-out: IC50* NRAS Q61R FRET data
Chain of NRAS Q61R (P01111 whole entry Q61R): as the sequence (P01111 whole entry G12C) above, with C12G, Q61R counted along it
Chain of NRAS Q61R (P62937 whole entry): as the sequence (P62937 whole entry) above
Procedure, shortened: as §2

NCI-H358 (K-Ras G12C) = experiment: CellTiter-Glo cell viability assay, NCI-H358; assay type: cell-based, human; settings: Homo sapiens, NCI-H358, 120 h, class symbols
Procedure, shortened: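 Four-parameter logistic fits were applied to luminescence data normalized against DMSO-treated wells. Readings were taken on day 5 following direct compound addition, after roughly 30 minutes at room temperature.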

KRAS G12V = KRAS G12V (Homo sapiens (Human), UniProt P01116+P62937, G12V); experiment: Ras-Raf (BRAF RBD) disruption / FRET / MOA assay, KRAS G12V; assay type: biochemical; settings: read-out: IC50* KRAS G12V FRET data
Chain of KRAS G12V (P01116-2 other isoform, or with tags, fused parts or gaps G12V): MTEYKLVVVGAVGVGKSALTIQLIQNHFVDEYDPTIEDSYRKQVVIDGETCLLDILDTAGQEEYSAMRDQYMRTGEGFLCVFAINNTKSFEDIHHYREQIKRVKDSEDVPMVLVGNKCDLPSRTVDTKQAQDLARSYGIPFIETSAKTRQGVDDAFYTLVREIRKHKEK
Chain of KRAS G12V (P62937 whole entry): as the sequence (P62937 whole entry) above
Procedure, shortened: as §1

[1] = read-out: IC50* NRAS G12C FRET data
[2] = NCI-H358, 5-day treatment, read-out: Additional H358 Cell Viability assay data (K-Ras G12C, IC50)

Chain of KRAS G12D (P01116-2 other isoform, or with tags, fused parts or gaps G12D): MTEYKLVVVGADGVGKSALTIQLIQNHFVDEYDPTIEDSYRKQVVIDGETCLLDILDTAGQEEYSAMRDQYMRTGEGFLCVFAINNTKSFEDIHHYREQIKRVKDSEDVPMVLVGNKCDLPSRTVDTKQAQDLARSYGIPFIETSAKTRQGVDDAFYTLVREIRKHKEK
Chain of KRAS G12D (P62937 whole entry): as the sequence (P62937 whole entry) above

Row | Compound | IC50 (KRAS G12D) [nM] | IC50 (NRAS G12C; [1]) [nM] | IC50 (K-Ras G13C) [nM] | IC50 (NRAS WT) [nM] | IC50 (NRAS Q61R) [nM] | IC50 (NCI-H358 (K-Ras G12C); [2]) [µM] | IC50 (KRAS G12V) [nM] | IC50 (NRAS G12C; IC50* NRAS G12C FRET data) [nM] | IC50 (NCI-H358 (K-Ras G12C); read-out: Additional H358 Cell Viability assay data (K-Ras G12C, IC50, uM), NCI-H358, 5-day treatment) [µM]
1 | CO[C@@H](C)c1ncccc1-c1c2c3cc(ccc3n1CC(F)(F)F)-c1csc(n1)C[C@H](NC(=O)CCOC1CN(C(=O)C#CC(C)(C)N3CCC3)C1)C(=O)N1CCC[C@H](N1)C(=O)OCC(C)(C)C2 (atropisomer, axis not shown) [Example A363] | > 10000 | 10 to 100 | 1000 to 10000 | 1000 to 10000 | 1000 to 10000 | 0.01 to 0.1 | 1000 to 10000 | – | –
2 | C=CC(=O)N(C)C[C@H]1CCN1C(=O)N(C)[C@H](C(=O)N[C@H]1Cc2nc(cs2)-c2ccc3c(c2)c(c(-c2cccnc2[C@H](C)OC)n3CC)CC(C)(C)COC(=O)[C@@H]2CCCN(N2)C1=O)C(C)C (atropisomer, axis not shown) [Example A369] | 1000 to 10000 | 100 to 1000 | 100 to 1000 | 100 to 1000 | 100 to 1000 | 0.01 to 0.1 | 100 to 1000 | – | –
3 | C=CC(=O)N1CC[C@H](C(=O)N(C)[C@H](C(=O)N[C@H]2Cc3cccc(c3)-c3ccc4c(c3)c(c(-c3cccnc3[C@H](C)OC)n4CC)CC(C)(C)COC(=O)[C@@H]3CCCN(N3)C2=O)C(C)C)[C@H]1C (atropisomer, axis not shown) [Example A373] | 1000 to 10000 | 100 to 1000 | 100 to 1000 | 1000 to 10000 | 1000 to 10000 | 0.01 to 0.1 | 100 to 1000 | – | –
4 | CO[C@@H](C)c1ncccc1-c1c2c3cc(ccc3n1CC(F)(F)F)-c1cc(cc(C(F)F)c1)C[C@H](NC(=O)[C@@H](COC1CN(C(=O)C#CC(C)(C)N(C)C)C1)C(C)C)C(=O)N1CCC[C@H](N1)C(=O)OCC(C)(C)C2 (atropisomer, axis not shown) [Example A374] | > 10000 | 100 to 1000 | > 10000 | > 10000 | > 10000 | 0.01 to 0.1 | > 10000 | – | –
5 | CCn1c(-c2cccnc2[C@H](C)OC)c2c3cc(ccc31)-c1csc(n1)C[C@H](NC(=O)CCO[C@H]1CCN(C(=O)C#CC(C)(C)N3CCC3)C1)C(=O)N1CCC[C@H](N1)C(=O)OCC(C)(C)C2 (atropisomer, axis not shown) [Example A381] | 1000 to 10000 | 10 to 100 | 1000 to 10000 | 1000 to 10000 | 1000 to 10000 | 0.01 to 0.1 | 1000 to 10000 | – | –
6 | C=CC(=O)N(C)C[C@@H]1CCN1C(=O)N(C)[C@H](C(=O)N[C@H]1Cc2nc(cs2)-c2ccc3c(c2)c(c(-c2cccnc2[C@H](C)OC)n3CC)CC(C)(C)COC(=O)[C@@H]2CCCN(N2)C1=O)C(C)C (atropisomer, axis not shown) [Example A390] | 1000 to 10000 | 100 to 1000 | 100 to 1000 | 1000 to 10000 | 1000 to 10000 | 0.1 to 1 | 1000 to 10000 | – | –
7 | C=CC(=O)N1CC[C@H](C(=O)N(C)[C@H](C(=O)N[C@H]2Cc3cccc(c3)-c3ccc4c(c3)c(c(-c3cc(C5CN(C)C5)cnc3[C@H](C)OC)n4CC)CC(C)(C)COC(=O)[C@@H]3CCCN(N3)C2=O)C(C)C)C1 (atropisomer, axis not shown) [Example A392] | > 10000 | 100 to 1000 | 1000 to 10000 | 1000 to 10000 | 1000 to 10000 | 0.01 to 0.1 | 1000 to 10000 | – | –
8 | C=CC(=O)N1CC[C@H](C(=O)N(C)[C@H](C(=O)N[C@H]2Cc3cc(O)cc(c3)-c3ccc4c(c3)c(c(-c3ncn(C)c3[C@H](C)OC)n4CC)CC(C)(C)COC(=O)[C@@H]3CCCN(N3)C2=O)C(C)C)C1 [Example A301] | > 10000 | – | 1000 to 10000 | – | > 10000 | – | 1000 to 10000 | 100 to 1000 | 0.1 to 1
